“Also recorded” adds a separate entry of the source.
How the values were obtained:
[1] = test system: isolated perfused diabetic kidneys; assay: Flow rate of isolated perfused diabetic kidneys after mast-cell degranulation with 48/80; details: diabetic rat kidney; for vasoconstriction response to 48/80 compared to untreated diabetic kidney (in words): BILA 2157 in perfusate
Method: Mast-cell degranulation was induced with agent 48/80, which will release renin, as the inventors have previously shown, as well as numerous other mediators synthesized and stored by mast cells.
Flow rate (ml/min) was measured under constant perfusion pressure, and is plotted against time (min).
After establishing a constant flow rate, mast-cell degranulation was induced by injecting the 48/80 degranulating agent (300 μg/ml) into the renal artery (at arrow). […] However, the magnitude of this vasoconstriction response was markedly different between the two kidneys. […] Moreover, the return to baseline flow rate was much faster in the BILA2157-treated diabetic kidney (˜8 min) compared to the untreated diabetic kidney (˜40 min). The rate of the initial flow recovery was also greater in the BILA-treated diabetic kidney (0.5 mls/min/min) compared to the untreated diabetic kidney (0.3 mls/min/min). […] In situ, the time it takes to return to normal flow after an acute increase in vascular resistance can profoundly influence the extent of ischemic damage in the kidney.

STZ-induced diabetic rat = assay: Retinal whole mounts stained with FITC-griffonia lectin (tortuosity of retinal microvasculature); format: in vivo; details: cromolyn-treated diabetic rat, retinal whole mount
Method: To induce a model of type-I diabetes, Sprague Dawley and Long-Evans rats were injected with a single dose of streptozotocin (STZ) (60 mg/kg) and maintained for 2 months. Hyperglycemia was confirmed by monitoring blood from tail bleeds. To assess vascular leakage in these diabetic rats, fluorescein retinal angiography was performed weekly over a 2-month time course in the Long-Evans rats. In some experiments, rats were treated with the mast cell stabilizer, Na-cromolyn, topically administered to the eyes. […] This Example describes an analysis of the retinal vasculature from fixed eyes of control (A), diabetic (B), and cromolyn-treated diabetic (C) rats.

[2] = test system: STZ-induced hyperglycemic Long-Evans rats; assay: Evan's Blue dye leakage across the blood-retinal barrier; format: in vivo, rat; details: Na cromolyn 4% topical, 2 drops twice a day, day 15 post STZ, n=4 rats
Description: In order to verify this finding, additional experiments were designed to measure leakiness across the blood-retinal barrier of STZ-induced hyperglycemic Long-Evans rats and to determine whether mast cell stabilization reduces vascular permeability in the hyperglycemic state. Blood glucose levels were monitored weekly to verify the hyperglycemic state. The three groups of animals were as follows: untreated hyperglycemic, cromolyn-treated hyperglycemic, and normo-glycemic (vehicle injected). The hyperglycemic group of rats was treated with the mast cell stabilizer (Na cromolyn, 4%) by topical administration to the eyes (2 drops twice a day), as described above.
Measurements of the Evan's Blue dye concentration across the blood-retinal barrier were performed on day 15 post±STZ-injection. […] 100 μl of the filtrate was then measured in a spectrophotometer at 620 nm, the dye's absorbance maximum. The dye's absorbance minimum, 740 nm, served as a reference wavelength. Dilutions (1:1000 in formamide) of the collected plasma were also measured spectrophotometrically at this time. Sample absorbance measurements were converted to concentrations using absorbance measurements from known concentrations of Evan's Blue in formamide. Dye leakage from blood to retina was calculated as: […]

VEGF = VEGF levels in retinas of STZ-injected diabetic rats; format: in vivo, rat; details: for effect on VEGF levels in retina (in words): STZ-induced diabetic rats, Na-Cromolyn 4% topical
Method: The STZ-induced diabetic rat model (Long Evans strain) (40 mg/kg body wt; 28 days) was used for these studies. To evaluate the effect of a mast cell stabilizer on VEGF levels, STZ-injected rats were treated with the mast cell stabilizer, Na-Cromolyn (4%), topically administered to the eyes (2 drops b.i.d.). VEGF levels were measured in the retinas of STZ-injected diabetic rats treated with Na-Cromolyn and these levels were compared to VEGF levels in the retinas of control rats and in the retinas of STZ-injected diabetic rats that received no Na-Cromolyn. Control rats received no streptozotocin (STZ) and no Na-Cromolyn.

[3] = test system: STZ-induced diabetic rat model (Long Evans strain); assay: Fluorescein angiography of retinal vascular permeability; format: in vivo; details: for leakage/pooling of fluorescein dye out of retinal vessels: 2 drops b.i.d.; for retinal vascular leakiness (fluorescein) over time: STZ Long-Evans rats, 14 and 28 days, n=3, FIG. 14
Method: To assess vascular leakage in these diabetic rats, fluorescein retinal angiography was performed weekly over a 2-month time course in the Long-Evans rats. In some experiments, rats were treated with the mast cell stabilizer, Na-cromolyn, topically administered to the eyes. The structure of Na-Cromolyn is shown below.
Angiography was performed on an upright fluorescence microscope using a long working distance lens. At the 2-month end point, rats were sacrificed and the eyes were enucleated, dissected free of cornea and extra-orbital connective tissue, and fixed in 4% paraformaldehyde.
The STZ-induced diabetic rat model (Long Evans strain) (40 mg/kg body wt; 28 days) was used for these studies. Fluorescein angiography was performed to assess the permeability of the retinal vasculature in these rats. The pigmented eyes of this strain facilitate angiography. Diabetic rats were treated with the mast cell stabilizer Na-cromolyn and the vascular permeability of these treated rats was compared to diabetic rats that were not treated with Na-cromolyn.
Weekly angiograms were also performed on control rats, STZ-injected, and STZ-injected rats treated with the mast cell stabilizer, Na cromolyn […], topically administered to the eyes (2 drops b.i.d.).
The STZ-induced diabetic rat model (Long Evans strain) (40 mg/kg body wt; 28 days) was used for fluorescein angiography experiments. The pigmented eyes of this strain facilitate angiography. To evaluate the role of mast cells, weekly angiograms were performed on control rats, STZ-injected, and STZ-injected rats treated with the mast cell stabilizer, Na cromolyn (4%), topically administered to the eyes (2 drops b.i.d.).

HMC-1 cells = assay: Chemotaxis of HMC-1 cells in Corning transwells; format: cell-based, human; details: transwell, p<0.05
Method: Chemotaxis experiments were performed with cultured human mastocytoma cells. HMC-1 cells were plated in Corning transwells consisting of inner and outer wells. The number of mast cells migrating through the insert in response to exogenous histamine±thioperamide, an H3/H4 histamine receptor […], was counted.

renin = assay: Renin activity (ANG I formed, RIA) of HMC-1 cells before and 48 hours after siRNA transfection; format: cell-based, human; details: siRNA 50 nM, 48 hours after transfection
Method: Renin-specific siRNA duplexes were made based on the coding sequence of human renin between exons 2-8 (Dharmacon) (accession number M26900). The four siRNA duplexes were made against the following renin sequences:
To assess the efficacy of this siRNA approach, the activity of renin protein was measured both before siRNA transfecting and at 48 hours after transfection of the HMC-1 cells.
HMC-1 cells were seeded in 6-well plates. Cells were transfected either with: renin siRNA duplexes (50 nM), scrambled siRNA duplex (50 nM), or treated with the transfection reagent (control), and maintained for 48 hours. An aliquot of cells from each well was counted to estimate the cell number before (initial) and 48 hours after transfection (post). The ability of the siRNA duplexes to silence renin mRNA in the transfected HMC-1 cells was determined by comparing the amount of ANG I formed in the releasate pre- and post-transfection by radioimmunoassay (RIA). […] The amount of ANG I generated on each sample is expressed as pg ANG I formed/ml/hr/10^5 cells. The effect of the siRNA on the amount of renin protein produced by the cell was determined by comparing the initial and final amounts of ANG I formed (renin activity) by the releasates.

## CC(C)C[C@H](O)[C@H](O)[C@H](CC1CCCCC1)NC(=O)[C@@H](CC(=O)N(CC(=O)N(C)CCc1ccccn1)CC1CCCCC1)Cc1csc(N)n1 [BILA2157]
[1]; 100 nM BILA 2157, after 48/80
  rate of the initial flow recovery: 0.5 mls/min/min
  return to baseline flow rate: ~8 min
[1]; 100 nM BILA 2157 in perfusate, constant perfusion pressure, 48/80 300 μg/ml into renal artery
  flow rate after 48/80 injection (from baseline 20 ml/min): 12 mL/min
[1]; 100 nM in perfusate
  effect on flow rate in the absence of a degranulating agent: no effect on flow rate
[1]
  vasoconstriction response to 48/80 compared to untreated diabetic kidney (in words): much less vasoconstriction
[1]; listed as BILA 2157
  vasoconstriction response to 48/80 compared to untreated diabetic kidney (in words): offsets the rate reducing effects

## O=C([O-])c1cc(=O)c2c(OCC(O)COc3cccc4oc(C(=O)[O-])cc(=O)c34)cccc2o1.[Na+].[Na+] [Na-cromolyn, Na-Cromolyn]
STZ-induced diabetic rat
  tortuosity / abnormal vessel morphology of retinal microvasculature: abnormal changes in the vessel morphology were not observed
[2]
  Evan's Blue dye leakage across the blood-retinal barrier: prevented dye leakage into the retinal space; also recorded: protects against the early phase of increased vascular permeability
[2]; listed as cromolyn Na
  Evan's Blue dye leakage across the blood-retinal barrier: protective effect against increased vascular permeability
VEGF
  effect on VEGF levels in retina (in words): reduces vascular endothelial growth factor (VEGF) levels
VEGF; listed as Cromolyn Na
  effect on VEGF levels in retina (in words): decreases vascular endothelial growth factor (VEGF) levels
VEGF; STZ-injected hyperglycemic rats, Na-Cromolyn 4% topical 2 drops b.i.d., 1 month, n=2
  VEGF level in retina: about 65 pg VEGF/ml/mg retina
[3]; Na cromolyn 2% topical, day 28, FIG. 15
  leakage/pooling of fluorescein dye out of retinal vessels: prevented dye pooling
[3]; Na cromolyn 4% topical, weekly angiograms
  leakage/pooling of fluorescein dye out of retinal vessels: prevented dye pooling
[3]
  retinal vascular leakiness (fluorescein) over time: greatly diminished
[3]; listed as cromolyn
  retinal vascular leakiness (fluorescein) over time: reduces the leakage of fluorescein from retinal vessels

## NCCc1c[nH]cn1 [histamine]
HMC-1 cells; vs control
  number of mast cells migrating through the insert in response to exogenous histamine: significantly more migration

## S=C(NC1CCCCC1)N1CCC(c2cnc[nH]2)CC1 [thioperamide]
HMC-1 cells
  migration with histamine alone compared to thioperamide alone or histamine in the presence of thioperamide: significantly more migration

## scrambled control siRNA: negative control, non-specific scrambled siRNA duplex, SEQ ID NO: 9 and 10 (chain 1 AUGUAUUGGCCUGUAUUAGUU; chain 2 CUAAUACAGGCCAAUACAUUU; listed as RNA, chemistry not given here)
renin
  change in renin activity / amount of ANG I formed after transfection (in words): no significant decrease

Source: patent US10517839B2, “Mast cell inhibition in diseases of the retina and vitreous” (Cornell University, priority 2008, dated 2019)
